Source: ChEMBL document CHEMBL1201862, “PubChem BioAssay data set” (2004)
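The compound was tested at five concentrations on cells cultured in 96-well plates, with a 48-hour exposure period. Here, GI50 denotes the concentration required for 50% inhibition of growth.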 Calls of active or inactive are those of the source. Cut-off read from the data, not from the text of the source: active = GI50 up to about 1.1 µM and inactive = higher.

Legend:
Assay in all cases: inhibition of tumour cell growth, NCI panel, 48 h
[1] = test system: HOP-18
[2] = test system: M14
[3] = test system: SK-MEL-2
[4] = test system: U-251
[5] = test system: K562
[6] = test system: SK-OV-3
[7] = test system: UACC-62
[8] = test system: SNB-19
[9] = test system: LXFL 529
[10] = test system: COLO 205
[11] = test system: HCT-15
[12] = test system: SF-268
[13] = test system: TK-10
[14] = test system: RPMI-8226
[15] = test system: SW-620
[16] = test system: SF-295
[17] = test system: HOP-62
[18] = test system: Malme-3M
[19] = test system: 786-0
[20] = test system: SN12C
[21] = test system: DMS-273
[22] = test system: M19-MEL
[23] = test system: IGROV-1
[24] = test system: OVCAR-5
[25] = test system: OVCAR-3
[26] = test system: HCT-116
[27] = test system: SF-539
[28] = test system: NCI-H23
[29] = test system: HOP-92
[30] = test system: MOLT-4
[31] = test system: DMS-114
[32] = test system: DLD-1
[33] = test system: A549
[34] = test system: NCI-H460
[35] = test system: HT-29
[36] = test system: OVCAR-4
[37] = test system: EKVX
[38] = test system: SNB-75
[39] = test system: NCI-H522
[40] = test system: A498
[41] = test system: LOX IMVI
[42] = test system: SK-MEL-28
[43] = test system: CAKI-1
[44] = test system: HCC 2998
[45] = test system: KM12
[46] = test system: KM-20L2
[47] = test system: CCRF-CEM
[48] = test system: SK-MEL-5
[49] = test system: OVCAR-8
[50] = test system: NCI-H226
[51] = test system: HL-60
[52] = test system: SNB-78
[53] = test system: UO-31
[54] = test system: ACHN
[55] = test system: UACC-257
[56] = test system: RXF 393
[57] = test system: SR

CCCC(=O)c1ccc2c(ccc(=O)n2C)c1
GI50 [1]: 88.1 µM (inactive) | GI50 [2]: > 100 µM (inactive) | GI50 [3]: > 100 µM (inactive) | GI50 [4]: > 100 µM (inactive) | GI50 [5]: > 100 µM (inactive) | GI50 [6]: > 100 µM (inactive) | GI50 [7]: 24.3 µM (inactive) | GI50 [8]: > 100 µM (inactive) | GI50 [9]: 84.5 µM (inactive) | GI50 [10]: > 100 µM (inactive) | GI50 [11]: > 100 µM | GI50 [12]: > 100 µM (inactive) | GI50 [13]: > 100 µM (inactive) | GI50 [14]: > 100 µM (inactive) | GI50 [15]: > 100 µM (inactive) | GI50 [16]: > 100 µM (inactive) | GI50 [17]: > 100 µM (inactive) | GI50 [18]: > 100 µM (inactive) | GI50 [19]: > 100 µM (inactive) | GI50 [20]: > 100 µM (inactive) | GI50 [21]: 66.2 µM (inactive) | GI50 [22]: > 100 µM (inactive) | GI50 [23]: > 100 µM (inactive) | GI50 [24]: > 100 µM (inactive) | GI50 [25]: > 100 µM (inactive) | GI50 [26]: > 100 µM (inactive) | GI50 [27]: > 100 µM (inactive) | GI50 [28]: > 100 µM (inactive) | GI50 [29]: 46.2 µM (inactive) | GI50 [30]: > 100 µM (inactive) | GI50 [31]: 31.6 µM (inactive) | GI50 [32]: > 100 µM (inactive) | GI50 [33]: > 100 µM (inactive) | GI50 [34]: > 100 µM (inactive) | GI50 [35]: > 100 µM (inactive) | GI50 [36]: 66.7 µM (inactive) | GI50 [37]: 42.2 µM (inactive) | GI50 [38]: 27.2 µM (inactive) | GI50 [39]: 31.9 µM (inactive) | GI50 [40]: 83 µM (inactive) | GI50 [41]: > 100 µM (inactive) | GI50 [42]: > 100 µM (inactive) | GI50 [43]: 52.7 µM (inactive) | GI50 [44]: > 100 µM (inactive) | GI50 [45]: > 100 µM (inactive) | GI50 [46]: > 100 µM (inactive) | GI50 [47]: > 100 µM (inactive) | GI50 [48]: 72.9 µM (inactive) | GI50 [49]: > 100 µM (inactive) | GI50 [50]: 31 µM (inactive) | GI50 [51]: > 100 µM (inactive)

CC1CCC(=O)NCCCCC(=O)N1 (stereo unspecified)
GI50 [2]: > 100 µM (inactive) | GI50 [3]: > 100 µM (inactive) | GI50 [4]: > 100 µM (inactive) | GI50 [5]: > 100 µM (inactive) | GI50 [6]: > 100 µM (inactive) | GI50 [7]: > 100 µM (inactive) | GI50 [8]: > 100 µM (inactive) | GI50 [9]: > 100 µM (inactive) | GI50 [52]: > 100 µM (inactive) | GI50 [10]: > 100 µM (inactive) | GI50 [12]: > 100 µM (inactive) | GI50 [13]: > 100 µM (inactive) | GI50 [14]: > 100 µM (inactive) | GI50 [15]: > 100 µM (inactive) | GI50 [16]: > 100 µM (inactive) | GI50 [17]: > 100 µM (inactive) | GI50 [18]: > 100 µM (inactive) | GI50 [19]: > 100 µM (inactive) | GI50 [20]: > 100 µM (inactive) | GI50 [53]: > 100 µM (inactive) | GI50 [21]: > 100 µM (inactive) | GI50 [22]: > 100 µM (inactive) | GI50 [23]: > 100 µM (inactive) | GI50 [24]: > 100 µM (inactive) | GI50 [25]: > 100 µM (inactive) | GI50 [26]: > 100 µM (inactive) | GI50 [27]: > 100 µM (inactive) | GI50 [28]: > 100 µM (inactive) | GI50 [29]: > 100 µM (inactive) | GI50 [30]: > 100 µM (inactive) | GI50 [31]: > 100 µM (inactive) | GI50 [32]: > 100 µM (inactive) | GI50 [33]: > 100 µM (inactive) | GI50 [34]: > 100 µM (inactive) | GI50 [35]: > 100 µM (inactive) | GI50 [54]: > 100 µM (inactive) | GI50 [36]: > 100 µM (inactive) | GI50 [37]: > 100 µM (inactive) | GI50 [38]: 43.3 µM (inactive) | GI50 [39]: > 100 µM (inactive) | GI50 [40]: > 100 µM (inactive) | GI50 [41]: > 100 µM (inactive) | GI50 [55]: > 100 µM (inactive) | GI50 [42]: > 100 µM (inactive) | GI50 [43]: > 100 µM (inactive) | GI50 [56]: > 100 µM (inactive) | GI50 [44]: > 100 µM (inactive) | GI50 [57]: > 100 µM (inactive) | GI50 [45]: > 100 µM (inactive) | GI50 [46]: > 100 µM (inactive) | GI50 [47]: > 100 µM (inactive) | GI50 [48]: > 100 µM (inactive) | GI50 [49]: > 100 µM (inactive) | GI50 [50]: > 100 µM (inactive) | GI50 [51]: > 100 µM (inactive)
